Data reported in patent publication US20050261164A1, “Remedy for urinary frequency and urinary incontinence” (FUJISAWA PHARMACEUTICAL CO., LTD., priority 2002, published 2005).
Where a name gives a salt, the structure may show the parent alone.

Test system: rhythmic bladder contraction, male SD rats
Test: rhythmic bladder contraction model of a rat (frequent urination model)
Format: in vivo
Details: urethane-anesthetized male SD rats, intravenous, 0 to 10 minutes after the administration
Experimental: Male SD rats (7 to 10 weeks old, Japan SLC) were anesthetized with urethane (1 to 1.2 g/kg, intraperitoneal administration) and their lower abdomen were opened along the midline. After performing a small dissection at the apex of the bladder, a cannula (Hibiki, size 5) attached with a balloon of about 1 ml volume was inserted into the bladder. A cannula for drug administration (PE50, Becton Dickinson) was inserted into the femoral vein. The cannula for measuring intravesical pressure was connected to a pressure transducer attached with a three-way cock and water was injected into the balloon from a free opening of the three-way cock to cause rhythmic bladder contraction. The intravesical pressure at that time was recorded by a thermal recorder (Recti-Horiz8K, NEC Sanei) via an amplifier (AP-601G, Nihon Kohden). The bladder contractile frequency and force were measured every 10 minutes before the administration of a test compound and for 0 to 10 and 10 to 20 minutes after the administration. Statistical analysis was performed using randomized block analysis of variance and Dunnett's multiple comparison with respect to the measurement values obtained before the administration.

## CN(C)CCNC(=O)c1cc(C(=O)N=C(N)N)cc(-c2cc(Cl)sc2Cl)c1 [test compound 2, [5-(2,5-dichlorothiophene-3-yl)-3-[(2-dimethylaminoethyl)carbamoyl]benzoyl]guanidine dihydrochloride]
1 mg/kg
  effect on bladder contractile force: without significantly affecting
1 mg/kg, p<0.05
  bladder contractile frequency, % of the value obtained before the administration: 22%

## (2,3-dihydro-9-methanesulfonyl-1-benzoxepin-4-carbonyl)guanidine dihydrochloride [test compound 3]
1 mg/kg
  effect on bladder contractile force: without significantly affecting
1 mg/kg, p<0.05
  bladder contractile frequency, % of the value obtained before the administration: 41%

## CC(C)c1ccc(C(=O)NC(=N)N)cc1S(C)(=O)=O.CS(=O)(=O)O [test compound 1, 4-isopropyl-3-methylsulfonylbenzoyl guanidine methanesulfonate]
3.2 mg/kg
  effect on bladder contractile force: without significantly affecting
3.2 mg/kg, p<0.01
  bladder contractile frequency, % of the value obtained before the administration: 25%
